For assay [1], the target named is T1, BRD4-BD1 (Homo sapiens, UniProt O60885).
T1 construct: made in house; host or cells: T7 phage grown in an E. coli host derived from the BL21 strain
The experiment in a line: bromoKdELECT assay for binding affinity to BRD4-BD1. To be noted: binding to BRD4-BD1, Table 4. On the procedure: (§1) Compounds were tested using a bromoKdELECT assay. T7 phage strains displaying bromodomains were grown in parallel in 24-well blocks in an E. coli host derived from the BL21 strain. E. coli were grown to log-phase and infected with T7 phage from a frozen stock (multiplicity of infection=0.4) and incubated with shaking at 32° C. until lysis (90-150 minutes). The lysates were centrifuged (5,000×g) and filtered (0.2 μm) to remove cell debris. Streptavidin-coated magnetic beads were treated with biotinylated small molecule or acetylated peptide ligands for 30 minutes at room temperature to generate affinity resins for bromodomain assays. The liganded beads were blocked with excess biotin and washed with blocking buffer (SeaBlock (Pierce), 1% BSA, 0.05% Tween 20, 1 mM DTT) to remove unbound ligand and to reduce nonspecific phage binding. Binding reactions were assembled by combining bromodomains, liganded affinity beads, and test compounds in 1× binding buffer (17% SeaBlock, 0.33×PBS, 0.04% Tween 20, 0.02% BSA, 0.004% Sodium azide, 7.4 mM DTT). Test compounds were prepared as 1000× stocks in 100% DMSO. Kds were determined using an 11-point 3-fold compound dilution series with one DMSO control point. All compounds for Kd measurements are distributed by acoustic transfer (non-contact dispensing) in 100% DMSO. The compounds were then diluted directly into the assays such that the final concentration of DMSO was 0.09%. All reactions performed in polypropylene 384-well plates. Each was a final volume of 0.02 ml. The assay plates were incubated at room temperature with shaking for 1 hour and the affinity beads were washed with wash buffer (1×PBS, 0.05% Tween 20). The beads were then resuspended in elution buffer (1×PBS, 0.05% Tween […] non-biotinylated affinity ligand) and incubated at room temperature with shaking for 30 minutes. The bromodomain concentration in the eluates was measured by qPCR.

Assay [2] concerns T-Rex 293 cell line SC3 cells lacking increased expression of androgen receptor protein. The experiment in a line: Cellular growth inhibition assay, T-Rex 293 SC3 cells without doxycycline (CellTiter-Glo, 72 hours). In kind it is cell-based. Particulars: T-Rex 293 cell line SC3 cells not exposed to doxycycline (lacking increased androgen receptor expression). The procedure, abridged:
(§2)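 Growth inhibition is measured in an inducible AR-expressing T-Rex 293 clone, SC3, cultured with or without 10 ng/mL doxycycline in hormone-depleted medium. Test compounds are applied for 72 hours. GI50 values derive from CellTiter-Glo 2.0 signal fitted by four-parameter regression.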
Background: Cellular ATP, detected with luciferase, serves as a proxy for viable cell number.

Assay [3] has as its system VCaP cells. As to the kind of experiment: Cellular growth inhibition assay for VCaP cells (CellTiter-Glo, 72 hours). In kind it is cell-based, human. Particulars: Homo sapiens, VCaP, 72 h. In short, it runs like this: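 Luminescent viability signal after 72 h of compound exposure gave GI50 values by four-parameter nonlinear regression. Compounds were added in 0.5% DMSO to cells plated 24 h earlier at 5000/well in DMEM containing 10% FBS.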

Assay [4] has as its system T-Rex 293 cell line SC3 cells having increased expression of androgen receptor protein due to exposure to doxycycline. As to the kind of experiment: Cellular growth inhibition assay, T-Rex 293 SC3 cells with doxycycline (CellTiter-Glo, 72 hours). To be noted: 72 h, T-Rex 293 SC3 cells with increased androgen receptor expression due to doxycycline (10 ng/mL). In kind it is cell-based. In short, it runs like this:
as §2

In assay [5] the target is T2, androgen receptor (Homo sapiens, UniProt P10275).
T2 sequence (P10275 1-920 T878A): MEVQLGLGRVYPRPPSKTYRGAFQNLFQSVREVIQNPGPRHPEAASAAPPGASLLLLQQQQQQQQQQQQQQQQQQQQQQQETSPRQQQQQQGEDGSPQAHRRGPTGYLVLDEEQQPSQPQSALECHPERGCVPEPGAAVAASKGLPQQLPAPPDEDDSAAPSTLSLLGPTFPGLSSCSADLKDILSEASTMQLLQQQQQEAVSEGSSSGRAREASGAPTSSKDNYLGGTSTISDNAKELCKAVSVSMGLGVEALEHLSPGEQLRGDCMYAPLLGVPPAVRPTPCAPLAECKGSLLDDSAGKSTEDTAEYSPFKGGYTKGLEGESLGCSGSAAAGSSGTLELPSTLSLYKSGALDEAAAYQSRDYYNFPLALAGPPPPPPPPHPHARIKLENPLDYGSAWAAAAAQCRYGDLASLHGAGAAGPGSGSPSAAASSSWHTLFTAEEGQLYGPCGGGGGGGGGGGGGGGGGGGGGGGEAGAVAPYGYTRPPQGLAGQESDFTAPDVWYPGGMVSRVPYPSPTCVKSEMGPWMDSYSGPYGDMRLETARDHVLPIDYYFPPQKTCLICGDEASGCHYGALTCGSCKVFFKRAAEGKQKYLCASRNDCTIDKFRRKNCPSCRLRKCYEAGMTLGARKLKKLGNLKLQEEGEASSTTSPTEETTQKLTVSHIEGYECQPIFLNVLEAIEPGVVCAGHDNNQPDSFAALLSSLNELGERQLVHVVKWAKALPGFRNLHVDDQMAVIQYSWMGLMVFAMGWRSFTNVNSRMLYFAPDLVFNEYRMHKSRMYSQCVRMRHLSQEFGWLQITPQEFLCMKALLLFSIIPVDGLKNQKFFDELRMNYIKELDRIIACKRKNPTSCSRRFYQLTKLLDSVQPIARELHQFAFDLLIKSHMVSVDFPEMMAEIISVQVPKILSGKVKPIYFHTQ
The experiment in a line: Assay for binding affinity to androgen receptor ([3H]methyltrienolone radioligand, cell cytosol). Particulars: binding to the androgen receptor, Table 3. On the procedure: Fractions of cell cytosol ([…]) were incubated for 24 hr at 4° C. with 1 nM [^3H]methyltrienolone in the absence or presence of the test compound in a buffer containing 25 mM Hepes-Tris (pH 7.4), 1 mM EDTA, 10 mM Na2MoO4, 2 mM DTT, 5 μM triamcinolone acetonide, and 10% glycerol. Nonspecific binding was determined in the presence of […] testosterone. Following incubation, the samples were filtered rapidly under vacuum through glass fiber filters (GF/B, Packard) presoaked with 0.3% PEI and rinsed several times with ice-cold 50 mM Tris-HCl using a 96-sample cell harvester (Unifilter, Packard). The filters were dried then counted for radioactivity in a scintillation counter (Topcount, Packard) using a scintillation cocktail (Microscint 0, Packard). The results are expressed as a percent inhibition of the control radioligand specific binding. The standard reference compound is testosterone, which is tested in each experiment at several concentrations to obtain a competition curve from which its IC50 is calculated.

Assay [6] addresses T3, BRD4-BD2 (Homo sapiens, UniProt O60885).
T3 construct: made in house; host or cells: T7 phage grown in an E. coli host derived from the BL21 strain
The experiment in a line: bromoKdELECT assay for binding affinity to BRD4-BD2. To be noted: binding to BRD4-BD2, Table 5. On the procedure:
as §1, with “[…])” for “μm)”

Consider `Cc1sc2c(c1C)C(c1ccc(Cl)cc1)=N[C@@H](CC(=O)NCCOCCOCCOCCOCCOC1CCN(c3ccc(C(=O)N[C@H]4CC[C@H](Oc5ccc(C#N)c(Cl)c5)CC4)nn3)CC1)c1nnc(C)n1-2` [I-3, N-[4-(3-chloro-4-cyano-phenoxy)cyclohexyl]-6-[4-[2-[2-[2-[2-[2-[[2-[7-(4-chlorophenyl)-4,5,13-trimethyl-3-thia-1,8,11,12-tetrazatricyclo[8.3.0.0^2,6]trideca-2(6),4,7,10,12-pentaen-9-yl]acetyl]amino]ethoxy]ethoxy]ethoxy]ethoxy]ethoxy]-1-piperidyl]pyridazine-3-carboxamide], for which the Kd (as a rule, the equilibrium constant for the complex coming apart) in assay [1] is < 50 nM. The 50% growth inhibitory concentration (GI50) (in general, the concentration at which growth is held to half of that of the control) in assay [2] (72 h) is 1500 to 3000 nM; in assay [3], < 500 nM; in assay [4], < 500 nM.

For the molecule `CCNC(=O)C[C@@H]1N=C(c2ccc(OCCOCCOCCOC3CCN(c4ccc(C(=O)N[C@H]5CC[C@H](Oc6ccc(C#N)c(Cl)c6)CC5)nn4)CC3)cc2)c2c(sc(C)c2C)-n2c(C)nnc21` [I-9], the concentration for 50% growth inhibition (GI50) in assay [2] (72 h) was 500 to 1500 nM; in assay [3] it was < 500 nM; in assay [4], < 500 nM. Further, the equilibrium dissociation constant (Kd) in assay [5] is < 50 nM.

Turning to `CCNC(=O)C[C@@H]1N=C(c2ccc(CCCC3CCN(c4ccc(C(=O)N[C@H]5CC[C@H](Oc6ccc(C#N)c(Cl)c6)CC5)nn4)CC3)cc2)c2c(sc(C)c2C)-n2c(C)nnc21` [I-51], the Kd was 50 to 500 nM in assay [1] and < 50 nM in assay [6]. For the same molecule, the values for the GI50 in assay [2] and in assay [4] were 500 to 1500 nM and < 500 nM, respectively.

As for `CCNC(=O)C[C@@H]1N=C(c2ccc(N3CCC(N(C)C4CN(c5ccc(C(=O)N[C@H]6CC[C@H](Oc7ccc(C#N)c(Cl)c7)CC6)nn5)C4)CC3)cc2)c2c(sc(C)c2C)-n2c(C)nnc21` [I-63], the GI50 is 500 to 1500 nM in assay [2] (72 h), < 500 nM in assay [3] and < 500 nM in assay [4]. In addition, the Kd in assay [5] was < 50 nM.

For `CCNC(=O)C[C@@H]1N=C(c2ccc(N3CCC(CN4CC(N(C)c5ccc(C(=O)N[C@H]6CC[C@H](Oc7ccc(C#N)c(Cl)c7)CC6)nn5)C4)CC3)cc2)c2c(sc(C)c2C)-n2c(C)nnc21` [I-68], the GI50 in assay [2] (72 h) was > 3000 nM; in assay [3], 500 to 1500 nM; in assay [4], > 3000 nM. The dissociation constant Kd in assay [5] lay in the range of 50 to 500 nM.
